# Assay results: patent publication US10632147B2, “Methods and compositions for treating inflammatory disorders” (priority 2007, dated 2020)
# Key:
# [1] = test system: Mycobacterium avium ATCC 15769; test: Mycobactericidal suspension test; assay type: cell-based
# Method: (§1) Broth cultures of either M. terrae (ATCC 15755) and M. avium (ATCC 15769) were grown for up to 35 days at 35° C. […] The plates were incubated for 4-5 weeks at 35° C. and colonies counted.
# [2] = test system: Mycobacterium terrae ATCC 15755; test: Mycobactericidal suspension test; assay type: cell-based
# Method: as §1
# coliphage MS2 = test: MS2 coliphage suspension test; assay type: cell-based; conditions: 20-200 mg/L, within a contact time of 20 seconds
# [3] = test system: Klebsiella pneumonia ATCC #4352; test: Microbial Time Kill Assay; assay type: cell-based; conditions: 150 ppm AFC, 15 second contact time
# [4] = test system: Staphylococcus haemolyticus ATCC #29968; test: Microbial Time Kill Assay; assay type: cell-based; conditions: 150 ppm AFC, 15 second contact time
# [5] = test system: Enterobacter aerogenes ATCC #51342; test: Microbial Time Kill Assay; assay type: cell-based; conditions: 150 ppm AFC, 15 second contact time
# [6] = test system: Staphylococcus aureus ATCC #6538; test: Microbial Time Kill Assay; assay type: cell-based; conditions: 150 ppm AFC, 15 second contact time
# [7] = test system: Staphylococcus hominis ATCC #25615; test: Microbial Time Kill Assay; assay type: cell-based; conditions: 150 ppm AFC, 15 second contact time
# [8] = test system: Haemophilus influenza ATCC #8149; test: Microbial Time Kill Assay; assay type: cell-based; conditions: 150 ppm AFC, 15 second contact time
# [9] = test system: Staphylococcus saprophyticus ATCC #15305; test: Microbial Time Kill Assay; assay type: cell-based; conditions: 150 ppm AFC, 15 second contact time
# [10] = test system: Staphylococcus aureus (MRSA) ATCC #33591; test: Microbial Time Kill Assay; assay type: cell-based; conditions: 150 ppm AFC, 15 second contact time
# [11] = test system: Enterococcus faecium (VRE) ATCC #51559; test: Microbial Time Kill Assay; assay type: cell-based; conditions: 150 ppm AFC, 15 second contact time
# human norovirus [12] = test: Norovirus carrier test; conditions: ceramic tiles and stainless steels, 1 min contact time, 20-200 ppm, RNA testing
# [13] = test system: Pseudomonas aeruginosa ATCC #9027; test: Microbial Time Kill Assay; assay type: cell-based; conditions: 150 ppm AFC, 15 second contact time
# [14] = test system: wound pathogens including S. aureus, P. aeruginosa, E. coli, Enterococcus spp., and Candida spp.; test: In vitro antimicrobial studies against wound pathogens; assay type: cell-based; conditions: within a 15 seconds contact time, even at ≤150 ppm
# [15] = test system: Acinetobacter baumannii ATCC #19606; test: Microbial Time Kill Assay; assay type: cell-based; conditions: 150 ppm AFC, 15 second contact time
# [16] = test system: Pseudomonas aeruginosa ATCC 15442; test: Bactericidal suspension test; assay type: cell-based
# [17] = test system: Enterococcus faecium (VRE); test: Carrier test; assay type: cell-based; conditions: <180 ppm, glass slide carriers
# [18] = Dermal irritation study (Draize); assay type: in vivo, New Zealand white rabbits; conditions: 0.5 ml, 689.5 ppm AFC, intact and abraded site; Draize at 24 and 72 hours
# Method: A skin irritation study was conducted on six healthy New Zealand white rabbits. The test article (0.5 ml hypochlorous acid, 689.5 ppm AFC) was applied to one intact and one abraded site on the clipped back of each rabbit. Skin reactions were evaluated by the Draize technique at 24 and 72 hours after dosing and the primary irritation index was calculated. There was no erythema or edema noted at any time period and there were no abnormal physical signs noted during the observation period.
# [19] = Delayed dermal sensitization in guinea pig maximization test; assay type: in vivo; conditions: intradermal injection and occlusive patch; scored 24 and 48 hours after patch removal; solution 690 ppm AFC, hydrogel 500 ppm AFC
# Salmonella choleraesuis = test: Carrier test; assay type: cell-based; conditions: <180 ppm, glass slide carriers
# Adenovirus, type V = test: Virucidal suspension test; assay type: cell-based
# [20] = Pilot study HOCl versus Sulfamylon as irrigant over excised and grafted burn
# [21] = test system: Escherichia coli (strain CM891); test: Bacterial mutagenicity; conditions: 241-252 ppm AFC, absence and presence of liver S9 fraction
# human norovirus [22] = test: Norovirus suspension test; assay type: cell-based; conditions: 20-200 mg/L, within a contact time of 20 seconds
# [23] = test system: Orthopoxvirus from vaccine; assay type: cell-based
# [24] = hypochlorous acid 40-180 ppm, suspension test
smiles,measurement,setting,value
OCl [hypochlorous acid],contact time after which pass was achieved,[1]; [24],15 s
same,Test Result (Log reduction),"[1]; in 5 min., 20° C. ± 1° C.",>10^5 in 5 min.
same,contact time after which pass was achieved,[2]; [24],15 s
same,Test Result (Log reduction),"[2]; in 5 min., 20° C. ± 1° C.",>10^5 in 5 min.
same,reduction of MS2,coliphage MS2,3 log10
same,% Reduction (% Kill),[3],>99.999%
same,HOCl Solution Log10,[3],≤1
same,HOCl Solution Survivors,[3],<10
same,Log Reduction,[3],≥5.70
same,% Reduction (% Kill),[4],>99.999%
same,HOCl Solution Log10,[4],≤1
same,HOCl Solution Survivors,[4],<10
same,Log Reduction,[4],≥5.57
same,% Reduction (% Kill),[5],>99.999%
same,HOCl Solution Log10,[5],≤1
same,HOCl Solution Survivors,[5],<10
same,Log Reduction,[5],≥5.43
same,% Reduction (% Kill),[6],>99.995%
same,HOCl Solution Log10,[6],≤1
same,HOCl Solution Survivors,[6],<10
same,Log Reduction,[6],≥4.96
same,% Reduction (% Kill),[7],>99.999%
same,HOCl Solution Log10,[7],≤1
same,HOCl Solution Survivors,[7],<10
same,Log Reduction,[7],≥5.68
same,% Reduction (% Kill),[8],>99.999%
same,HOCl Solution Log10,[8],≤1
same,HOCl Solution Survivors,[8],<10
same,Log Reduction,[8],≥5.59
same,% Reduction (% Kill),[9],>99.999%
same,HOCl Solution Log10,[9],≤1
same,HOCl Solution Survivors,[9],<10
same,Log Reduction,[9],≥5.68
same,% Reduction (% Kill),[10],>99.999%
same,HOCl Solution Log10,[10],≤1
same,HOCl Solution Survivors,[10],<10
same,Log Reduction,[10],≥5.20
same,% Reduction (% Kill),[11],>99.999%
same,HOCl Solution Log10,[11],≤1
same,HOCl Solution Survivors,[11],<10
same,Log Reduction,[11],≥5.20
same,inactivation of human norovirus,human norovirus [12],> 3 log10
same,% Reduction (% Kill),[13],>99.999%
same,HOCl Solution Log10,[13],≤1
same,HOCl Solution Survivors,[13],<10
same,Log Reduction,[13],≥5.11
same,kill,[14],> 5 log
same,% Reduction (% Kill),[15],>99.999%
same,HOCl Solution Log10,[15],≤1
same,HOCl Solution Survivors,[15],<10
same,Log Reduction,[15],≥5.15
same,contact time after which pass was achieved,[16]; [24],15 s
same,Test Result (Log reduction),"[16]; in 5 min., 20° C. ± 1° C.",>10^5 in 5 min.
same,Time to achieve pass,[17],5 min
same,dermal irritation,[18],no dermal irritation
same,delayed dermal contact sensitization,[19],no evidence of causing a delayed dermal contact sensitization
same,Time to achieve pass,Salmonella choleraesuis,2 min
same,Test Result (Log reduction),"Adenovirus, type V",>10^4 in 15 min.
same,contact time after which pass was achieved,"Adenovirus, type V",15 min
same,safety profile (adverse effects),[20],absence of adverse effects
same,graft take and infection prevention compared with Sulfamylon,[20]; 150-180 ppm AFC,equivalency
same,pain reduction (visual analogue scale) compared with Sulfamylon group,[20]; 150-180 ppm AFC,better
same,mutagenic activity,[21],No evidence of mutagenic activity
same,reduction of human norovirus,human norovirus [22],3 log10
same,contact time after which pass was achieved,[23]; [24],15 min
same,Test Result (Log reduction),"[23]; in 15 min., 20° C. ± 1° C.",>10^4 in 15 min.
